Reference: patent US20070087330A1, “Viral deconstruction through capsid assembly in vitro” (priority 2002, published 2007)

Key:
[1] = tested on: HBV core polypeptides / HBV capsids; type: biochemical
Description: Following translation of HBV core transcript for 30 min, the translation product was diluted in 0.01% Nil(kol buffer and centrifuged on a 10-50% sucrose gradient. The supernatant was removed and the pellet was resuspended in buffer and divided into equal aliquots. To one aliquots was added apyrase (A, top) while the control was incubated in buffe alone (A, bottom). Incubations were done at 25° C. for 90 min. Reaction mixtures were then centrifuged on standard 10-50% sucrose gradients. Fractions were analyzed by SDS-PAGE and autoradiography. In a separate experiment (B) the pellet was isolated and resuspended in identical fashion. To one aliquot was added wheat germ extract as well as unlabeled energy mix. (B, top); to the second aliquot was added wheat germ extract and apyrase (B, botton).
To address this, pellet material was isolated by fractionating the products of a 30-min translation of HBV core on a sucrose gradient and resuspending the pellet in buffer. The resuspended pellet was divided into equal aliquots and treated either with aphyase or with buffer for 90 min at 24° C.
Treatment of the isolated pellet with apyrase and wheat germ extract (FIG. 23B, bottom).

[2] = tested on: HIV capsid assembly (Gag Pr55); test: Cell-free HIV capsid assembly in wheat germ extract, analysed by velocity sedimentation; type: biochemical
Description: Translation of the transcription products was carried out in wheat germ extract containing ^35S methionine (ICN Pharmaceuticals, Costa Mesa, Calif.). Wheat germ was obtained from General Mills. Wheat germ extract was prepared as described by Erickson and Blobel (1983) supra with indicated modifications. Three grams of wheat germ were placed in a mortar and ground in 10 ml homogenization buffer (100 mM K-acetate, 1 mM Mg-acetate, 2 mM CaC12, 40 mM HEPES buffer, pH 7.5 (Sigma Chemicals, St. Louis, Mo.), 4 mM dithiothreitol) to a thick paste. The homogenate was scraped into a chilled centrifuge tube and centrifuged at 4° C. for 10 min at 23,000×g. The resulting supernatant was centrifuged again under these conditions to provide an S23 wheat germ extract. Improved assembly was obtained when the S23 wheat germ extract was further subjected to ultracentrifugation at 50,000 rpm in the TLA 100 rotor (100,000×g) (Beckman Instruments, Palo Alto, Calif.) for 15 min at 4° C. and the supernatant used for in vitro translation. […] This supernatant is referred to herein as a “high speed wheat germ extract supernatant”. Reactions were performed as previously described (Lingappa, J. R., et al., J. Cell. Biol. (1984) 125:99-111), except for modifications noted below.
A 25 μl wheat germ transcription/translation reaction mixture contained: 5 μl Gag transcript, 5 μl ^35—S Energy Mix 5× stock (Sigma Chemical Co., St. Louis, Mo.), 2.5 μl Compensating Buffer (Sigma Chemical Co.), 1.0 μl 40 mM MgAcetate (Sigma Chemical Co.), 2.0 μl 125 μM Myristoyl CoA (made up in 20 mM Tris Acetate, pH 7.6; Sigma Chemical Co.), 3.75 μl 20 mM Tris Acetate buffer, […] (U.S. Biochemicals; Cleveland, Ohio), 0.25 μl creatine kinase (4 mg/ml stock in 50% glycerol, 10 mM Tris Acetate; Boehringer Mannheim, Indianapolis, Ind.), 0.25 μl bovine tRNA (10 mg/ml stock; Sigma Chemical Co.), and 0.25 μl RNAse Inhibitor (20 units/50; Promega). […]
The purpose of this experiment was to use the cell-free system for detecting HIV assembly intermediates that would be otherwise difficult or impossible to detect. A continuously labeled cell-free reaction was analyzed by velocity sedimentation. […] Upon completion of the cell-free reaction, the products were diluted into 1% NP40 sample buffer on ice, and were analyzed by velocity sedimentation on 13 ml 15-60% sucrose gradients. Fractions were collected from the top of each gradient, and the amount of radiolabeled Pr55 protein in each fraction was determined and expressed as percent of total Pr55 protein present in the reaction. The calculated positions of 10S, 80S, 150S, 500S, and 750S complexes are indicated with markers above the figures (see FIG. 3A). […]

HBV core polypeptides / HBV capsids, sequence (P03146 whole entry): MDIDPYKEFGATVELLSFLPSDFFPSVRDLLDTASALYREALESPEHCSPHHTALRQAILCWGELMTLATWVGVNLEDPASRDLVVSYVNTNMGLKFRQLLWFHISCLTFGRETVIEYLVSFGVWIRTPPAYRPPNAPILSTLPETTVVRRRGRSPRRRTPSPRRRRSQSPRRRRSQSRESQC

O=C(O)CN(CCN(CC(=O)O)CC(=O)O)CC(=O)O [EDTA]
Effect on relative distribution of labeled core polypeptides in top, middle and pellet regions ([1]; 10 mM, translation products treated): had no effect

CC[C@H]1CN2CCc3cc(OC)c(OC)cc3[C@@H]2C[C@@H]1C[C@H]1NCCc2cc(OC)c(OC)cc21 [emetine]
Effect on results of treating the isolated pellet with energy substrates or apyrase ([1]; protein synthesis inhibitor added): did not affect

apyrase
A (material in fractions of assembly intermediate complex A) ([2]; radiolabeled Pr55 in 10S complex A, apyrase added post-translationally, detergent cotranslationally): 2851 | B/C (material in fractions of assembly intermediate complexes B and C) ([2]; radiolabeled Pr55 in 80S/150S complexes B and C, apyrase added post-translationally, detergent cotranslationally): 5999 | Final Capsid (material in fractions of the completed capsid) ([2]; radiolabeled Pr55 in 750S completed capsid position, apyrase added post-translationally, detergent cotranslationally): 133 | Effect of treatment on assembly intermediates ([2]; velocity sedimentation, compared with the untreated reaction): accumulation of additional material in complexes B and C | Effect of treating the isolated pellet material ([1]; pellet of a 30-min translation, 90 min at 24° C.): release of completed capsids from the pellet
